Measured values published in patent US8846704B2, “Thiopyrimidine-based compounds and uses thereof” (YM Biosciences Austraila Pty Ltd, priority 2007, dated 2014).

These compounds were tested against T1, BaF3 TELJAK3 cells (Homo sapiens, UniProt P52333) (assay: Cellular screening, BaF3 TEL:JAK3 cells, Alamar Blue). Settings: 40 hr, read-out: BafT_J3 IC50_nM.
T1 construct: fused on or other part: TEL (ETV6) N-terminal part, coding nucleotides 1-487, serves as the oligomerising partner; It is fused through a Sal I site to the JAK3 kinase domain and expressed from pTRE2 in BaF3 cells bearing pTET-off; P41212 (Transcription factor ETV6)
T1 sequence (P52333 1-1124): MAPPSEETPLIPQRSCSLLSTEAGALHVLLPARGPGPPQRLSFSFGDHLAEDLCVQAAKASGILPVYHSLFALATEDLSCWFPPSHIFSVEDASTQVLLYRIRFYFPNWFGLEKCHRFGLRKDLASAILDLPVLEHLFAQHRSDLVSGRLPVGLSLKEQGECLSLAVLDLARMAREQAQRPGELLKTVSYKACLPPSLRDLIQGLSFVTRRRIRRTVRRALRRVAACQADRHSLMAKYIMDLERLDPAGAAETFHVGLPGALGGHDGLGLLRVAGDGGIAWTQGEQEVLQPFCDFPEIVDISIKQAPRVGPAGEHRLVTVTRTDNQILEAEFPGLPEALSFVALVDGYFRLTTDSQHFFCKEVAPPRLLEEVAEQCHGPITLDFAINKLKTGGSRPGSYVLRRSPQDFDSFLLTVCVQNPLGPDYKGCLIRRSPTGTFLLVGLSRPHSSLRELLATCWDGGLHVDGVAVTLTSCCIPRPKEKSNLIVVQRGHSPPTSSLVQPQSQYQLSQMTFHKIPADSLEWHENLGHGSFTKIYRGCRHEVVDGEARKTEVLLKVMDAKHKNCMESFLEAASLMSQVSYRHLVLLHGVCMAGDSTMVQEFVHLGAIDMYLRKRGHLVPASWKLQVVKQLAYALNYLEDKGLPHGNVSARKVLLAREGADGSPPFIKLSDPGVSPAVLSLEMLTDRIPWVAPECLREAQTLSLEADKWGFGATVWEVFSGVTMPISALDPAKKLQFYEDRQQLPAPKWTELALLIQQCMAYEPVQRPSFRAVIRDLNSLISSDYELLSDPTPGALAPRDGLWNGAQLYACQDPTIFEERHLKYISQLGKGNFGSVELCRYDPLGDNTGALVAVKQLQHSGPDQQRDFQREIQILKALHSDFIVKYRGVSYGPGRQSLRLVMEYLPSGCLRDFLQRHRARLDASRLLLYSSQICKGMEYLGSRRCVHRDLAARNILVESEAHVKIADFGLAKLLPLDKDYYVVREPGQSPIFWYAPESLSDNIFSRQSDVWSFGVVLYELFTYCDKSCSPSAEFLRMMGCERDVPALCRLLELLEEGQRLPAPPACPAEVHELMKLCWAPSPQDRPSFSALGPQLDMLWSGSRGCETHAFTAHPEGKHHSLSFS
Assay type: cell-based
Procedure, shortened: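 Alamar Blue signal at 544 nm, developed for 4–6 h, measured viability after 40 h of compound treatment at 37 °C, 5% CO2. Cells were growth-factor-independent BaF3 lines transfected with a TEL/JAK3 kinase-domain fusion under tet-off control. They were cultured in DMEM, 10% Tet-approved FBS, lacking WEHI 3B conditioned medium.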
`C=CC(=O)Nc1ccc(Sc2ccnc(Nc3cccc(OC)c3)n2)cc1` [Compound 105, N-(4-(2-(3-methoxyphenylao)pyrimidin-4-ylthio)phenyl)acrylamide] was tested, and the GI50 was less than 1 µM. `NC(=O)c1nccn1Cc1ccc(Sc2ccnc(Nc3ccc(N4CCOCC4)cc3)n2)cc1` [Compound 149, 1-(4-(2-(4-morpholinophenylao)pyrimidin-4-ylthio)benzyl)-1H-imidazole-2-carboxamide] was tested, and the GI50 was less than 5 µM. `Cc1cnc(Nc2ccc(N3CCOCC3)cc2)nc1Sc1ccc2c(c1)CCCN2` [Compound 166, 5-methyl-N-(4-morpholinophenyl)-4-(1,2,3,4-tetrahydroquinolin-6-ylthio)pyrimidin-2-ae] showed a GI50 of less than 20 µM. With `c1cn(Cc2ccc(Sc3ccnc(Nc4ccc(N5CCOCC5)cc4)n3)cc2)cn1` [Compound 127, 4-(4-((1H-imidazol-1-yl)methyl)phenylthio)-N-(4-morpholinophenyl)pyrimidin-2-ae] the GI50 was less than 20 µM. `C=CC(=O)Nc1ccc(Sc2ccnc(Nc3ccc(C#N)cc3)n2)cc1` [Compound 131, N-(4-(2-(4-cyanophenylao)pyrimidin-4-ylthio)phenyl)acrylamide] showed a GI50 of less than 5 µM. `C=CC(=O)Nc1ccc(Sc2ccnc(Nc3ccc(N4CCOCC4)cc3)n2)c(Cl)c1C` [Compound 161, N-(3-chloro-2-methyl-4-(2-(4-morpholinophenylao)pyrimidin-4-ylthio)phenyl)acrylamide] was tested, and the GI50 was less than 1 µM. `C=CC(=O)Nc1ccc(Sc2nc(Nc3ccc(N4CCOCC4)cc3)ncc2-c2ccccc2)cc1` [Compound 307, N-(4-(2-(4-morpholinophenylao)-5-phenylpyrimidin-4-ylthio)phenyl)acrylamide] gave a GI50 of less than 20 µM. Compound `CCOC(=O)/C=C\C(=O)Nc1ccc(Sc2nc(Nc3ccc(N4CCOCC4)cc3)ncc2C)cc1` [Compound 388, (Z)-ethyl 4-(4-(5-methyl-2-(4-morpholinophenylao)pyrimidin-4-ylthio)phenylao)-4-oxobut-2-enoate] has a GI50 of less than 5 µM. In the case of `N#Cc1nccc(Sc2ccc(Sc3ccnc(Nc4ccc(N5CCOCC5)cc4)n3)cc2)n1` [Compound 154, 4-(4-(2-(4-morpholinophenylao)pyrimidin-4-ylthio)phenylthio)pyrimidine-2-carbonitrile], the GI50 is reported as less than 5 µM. With `C=CC(=O)Nc1cc(C)c(Sc2nc(Nc3ccc(N4CCOCC4)cc3)ncc2C)c(C)c1` [Compound 164, N-(3,5-dimethyl-4-(5-methyl-2-(4-morpholinophenylao)pyrimidin-4-ylthio)phenyl)acrylamide] the GI50 was less than 1 µM. `C=CC(=O)N(C)c1ccc(Sc2ccnc(Nc3ccc(N4CCOCC4)cc3)n2)cc1` [Compound 91, N-methyl-N-(4-(2-(4-morpholinophenylao)pyrimidin-4-ylthio)phenyl)acrylamide] showed a GI50 of less than 1 µM. For `C=CC(=O)Nc1ccc(Sc2nc(Nc3ccc(N4CCOCC4)cc3)ncc2Cl)cc1` [Compound 315, N-(4-(5-chloro-2-(4-morpholinophenylao)pyrimidin-4-ylthio)phenyl)acrylmide], the GI50 was less than 1 µM. `CC(=O)Nc1ccc(Sc2ccnc(Nc3ccc(N4CCC(N5CCCC5)CC4)cc3)n2)cc1` [Compound 86, N-(4-(2-(4-(4-(pyrrolidin-1-yl)piperidin-1-yl)phenylao)pyrimidin-4-ylthio)phenyl)acetamide] showed a GI50 of less than 5 µM. For `COC(=O)COCC(=O)Nc1ccc(Sc2nc(Nc3ccc(N4CCOCC4)cc3)ncc2C)cc1` [Compound 189, methyl 2-(2-(4-(5-methyl-2-(4-morpholinophenylao)pyrimidin-4-ylthio)phenylao)-2-oxoethoxy)acetate], the GI50 was less than 20 µM. In the case of `C=CC(=O)Nc1ccc(Sc2ccnc(Nc3ccc(S(=O)(=O)NCc4ccccc4)cc3)n2)cc1` [Compound 368, N-(4-(2-(4-(N-benzylsulfamoyl)phenylao)pyrimidin-4-ylthio)phenyl)acrylamide], the GI50 is reported as less than 5 µM. For `Cc1cnc(Nc2ccc(N3CCOCC3)cc2)nc1Sc1ccc(N)cc1` [Compound 126, 4-(4-aophenylthio)-5-methyl-N-(4-morpholinophenyl)pyrimidin-2-ae], the GI50 was less than 5 µM. `C=CC(=O)Nc1ccc(Sc2nc(Nc3ccc(N4CCOCC4)cc3)ncc2I)cc1` [Compound 313, N-(4-(5-iodo-2-(4-morpholinophenylao)pyrimidin-4-ylthio)phenyl)acrylamide] showed a GI50 of less than 1 µM. With `Cc1cnc(Nc2ccc(N3CCOCC3)cc2)nc1Sc1ccc(NC(=O)/C(Br)=C\C(=O)O)cc1` [Compound 381, (E)-3-bromo-4-(4-(5-methyl-2-(4-morpholinophenylao)pyrimidin-4-ylthio)phenylao)-4-oxobut-2-enoic acid] the GI50 was less than 20 µM. `C=CC(=O)Nc1ccc(Sc2ccnc(Nc3cccc([N+](=O)[O-])c3)n2)cc1` [Compound 361, N-(4-(2-(3-nitrophenylao)pyrimidin-4-ylthio)phenyl)acrylamide] was tested, and the GI50 was less than 5 µM. `C=CC(=O)Nc1ccc(Sc2nc(Nc3ccc(O)cc3)ncc2C)cc1` [Compound 282, N-(4-(2-(4-hydroxyphenylao)-5-methylpyrimidin-4-ylthio)phenyl)acrylamide] showed a GI50 of less than 1 µM. In the case of `C=CC(=O)Nc1ccc(Sc2nc(Nc3ccccc3O)ncc2C)cc1` [Compound 287, N-(4-(2-(2-hydroxyphenylao)-5-methylpyrimidin-4-ylthio)phenyl)acrylamide], the GI50 is reported as less than 20 µM. `C=CC(=O)Nc1ccc(Sc2nc(Nc3ccc(N4CCOCC4)cc3)ncc2C)cc1` [Compound 124, N-(4-(5-methyl-2-(4-morpholinophenylao)pyrimidin-4-ylthio)phenyl)acrylamide] gave a GI50 of less than 1 µM. Compound `C=CC(=O)Nc1ccc(Sc2ccnc(Nc3cccc(N4CCCC4)c3)n2)cc1` [Compound 355, N-(4-(2-(3-(pyrrolidin-1-yl)phenylao)pyrimidin-4-ylthio)phenyl)acrylamide] has a GI50 of less than 5 µM. `Cc1cnc(Nc2ccc(N3CCOCC3)cc2)nc1Sc1ccc(NC(=O)CCC(=O)O)cc1` [Compound 383, 4-(4-(5-methyl-2-(4-morpholinophenylao)pyrimidin-4-ylthio)phenylao)-4-oxobutanoic acid] gave a GI50 greater than 20 µM. With `C=CC(=O)Nc1ccc(Sc2ccnc(Nc3ccc(N4CCC(N5CCCC5)CC4)cc3)n2)cc1` [Compound 87, N-(4-(2-(4-(4-(pyrrolidin-1-yl)piperidin-1-yl)phenylao)pyrimidin-4-ylthio)phenyl)acrylamide] the GI50 was less than 1 µM. `C=CC(=O)Nc1ccc(Sc2ccnc(Nc3ccc(F)c(C#N)c3)n2)cc1` [Compound 354, N-(4-(2-(3-cyano-4-fluorophenylao)pyrimidin-4-ylthio)phenyl)acrylamide] gave a GI50 of less than 20 µM. In the case of `CCC(=O)Nc1ccc(Sc2nc(Nc3ccc(N4CCOCC4)cc3)ncc2Cl)cc1` [Compound 347, N-(4-(5-chloro-2-(4-morpholinophenylao)pyrimidin-4-ylthio)phenyl)propionamide], the GI50 is reported as less than 1 µM. In the case of `C=CC(=O)Nc1ccc(Sc2ccnc(Nc3ccc(OC)cc3)n2)cc1` [Compound 74, N-(4-(2-(4-methoxyphenylao)pyrimidin-4-ylthio)phenyl)acrylamide], the GI50 is reported as less than 1 µM. Compound `C=CC(=O)Nc1ccc(Sc2ccnc(Nc3ccc(Cl)cc3)n2)cc1` [Compound 353, N-(4-(2-(4-chlorophenylao)pyrimidin-4-ylthio)phenyl)acrylamide] has a GI50 of less than 5 µM. With `CC(=O)Nc1ccc(Sc2nc(Nc3ccc(N4CCOCC4)cc3)ncc2C)cc1` [Compound 135, N-(4-(5-methyl-2-(4-morpholinophenylao)pyrimidin-4-ylthio)phenyl)acetamide] the GI50 was greater than 20 µM.
